Laboratory results published in patent publication US20250215029A1 (Recludix Pharma, Inc., priority 2022, published 2025).

Key:
[1] = target: T1, Recombinant STAT3 protein (STAT3 (G127-I722)) (Homo sapiens, UniProt P40763); test: STAT3 Fluorescence Polarization (FP) Assay; type: binding; conditions: STAT3 (G127-I722) 25 nM, probe 5-FAM-GpYLPQTV-NH2 2 nM, 45-minute incubation; read-out: STAT3 (FP assay IC50 class)
T1 construct: Recombinant STAT3 protein (STAT3 (G127-I722))
How it was run: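 Compounds in serial dilution receive a premix of STAT3 (G127-I722, 25 nM) and fluorescent phosphotyrosine peptide 5-FAM-GpYLPQTV-NH2 (2 nM) at pH 7.4. After 45 min at room temperature, FP is measured and IC50 derived by nonlinear regression.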

[2] = target: T2, Recombinant STAT6 protein (STAT6 (W123-T658)) (Homo sapiens, UniProt P42226); test: STAT6 Fluorescence Polarization (FP) Assay; type: binding; conditions: STAT6 (W123-T658) 250 nM, probe 5-FAM-Ap[…]-NH2 2 nM, 45-minute incubation; read-out: STAT6 (FP assay IC50 class)
T2 construct: Recombinant STAT6 protein (STAT6 (W123-T658))
T2 sequence (P42226 123-658): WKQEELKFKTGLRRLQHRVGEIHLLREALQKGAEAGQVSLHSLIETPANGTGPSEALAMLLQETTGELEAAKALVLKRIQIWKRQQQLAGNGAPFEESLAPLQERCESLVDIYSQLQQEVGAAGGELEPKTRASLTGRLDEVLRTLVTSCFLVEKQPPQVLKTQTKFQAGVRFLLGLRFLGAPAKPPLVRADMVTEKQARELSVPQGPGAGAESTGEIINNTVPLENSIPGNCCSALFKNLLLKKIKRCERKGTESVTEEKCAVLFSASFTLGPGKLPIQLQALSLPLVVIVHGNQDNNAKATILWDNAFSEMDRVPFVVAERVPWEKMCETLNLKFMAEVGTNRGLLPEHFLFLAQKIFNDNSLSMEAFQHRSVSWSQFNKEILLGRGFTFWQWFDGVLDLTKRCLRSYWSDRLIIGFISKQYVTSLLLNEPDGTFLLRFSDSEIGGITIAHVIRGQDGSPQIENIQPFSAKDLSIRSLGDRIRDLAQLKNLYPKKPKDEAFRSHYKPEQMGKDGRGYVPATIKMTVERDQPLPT
How it was run: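 Serially diluted compounds received a premix of STAT6 (W123-T658, 250 nM) and 5-FAM peptide probe (2 nM) in pH 7.4 HEPES buffer containing DTT and Tween 20. Following 45 min at room temperature, FP was recorded. IC50s were fitted by nonlinear regression; values are binned A (≤300 nM), B (>300-3000 nM), C (>3-30 μM), D (>30 μM).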

T1 sequence (P40763 127-722): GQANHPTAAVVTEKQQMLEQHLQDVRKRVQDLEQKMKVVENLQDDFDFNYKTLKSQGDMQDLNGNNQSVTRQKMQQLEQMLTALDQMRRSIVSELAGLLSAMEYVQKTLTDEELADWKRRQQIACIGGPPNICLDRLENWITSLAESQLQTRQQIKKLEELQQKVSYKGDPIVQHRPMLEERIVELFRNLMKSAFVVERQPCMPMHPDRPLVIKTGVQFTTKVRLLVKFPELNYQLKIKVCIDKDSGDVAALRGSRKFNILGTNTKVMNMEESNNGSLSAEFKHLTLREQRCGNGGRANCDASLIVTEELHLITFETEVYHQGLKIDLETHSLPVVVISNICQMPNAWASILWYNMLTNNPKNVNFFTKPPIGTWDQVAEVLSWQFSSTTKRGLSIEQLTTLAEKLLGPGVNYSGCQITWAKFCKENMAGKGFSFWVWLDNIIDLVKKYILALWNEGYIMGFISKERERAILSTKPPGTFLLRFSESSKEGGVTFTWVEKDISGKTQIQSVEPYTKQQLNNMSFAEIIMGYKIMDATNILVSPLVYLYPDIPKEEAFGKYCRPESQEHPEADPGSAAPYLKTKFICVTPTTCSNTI

Row | SMILES | IC50 [1] [µM] | IC50 [2] [µM]
1 | Cn1ccc(=O)c(C2CN(C(=O)[C@@H]3CC[C@@H]4CCC[C@H](NC(=O)c5cc6cc(C(F)P(=O)(O)O)ccc6s5)C(=O)N43)C2)c1 (stereo partly drawn) [Compound 617, (fluoro(2-(((3S,6S,9aS)-3-(3-(1-methyl-4-oxo-1,4-dihydropyridin-3-yl)azetidine-1-carbonyl)-5-oxooctahydro-1H-pyrrolo[1,2-a]azepin-6-yl)carbamoyl)benzo [b]thiophen-5-yl)methyl) phosphonic acid] | 0.1 to 1 | 3 to 30
2 | CCc1ccncc1C1CN(C(=O)[C@@H]2CC[C@@H]3CCC[C@H](NC(=O)c4cc5cc(CP(=O)(O)O)ccn5n4)C(=O)N32)C1 [Compound 618, ((2-(((3S,6S,9aS)-3-(3-(4-ethylpyridin-3-yl)azetidine-1-carbonyl)-5-oxooctahydro-1H-pyrrolo[1,2-a]azepin-6-yl)carbamoyl)pyrazolo[1,5-a]pyridin-5-yl)methyl) phosphonic acid] | 1 to 10 | 3 to 30
3 | O=C(N[C@H]1CCC[C@H]2CC[C@@H](C(=O)N3CC(c4ccnc(O)c4)C3)N2C1=O)c1cc2cc(C(F)P(=O)(O)O)ccc2s1 (stereo partly drawn) [Compound 619, (fluoro(2-(((3S,6S,9aS)-3-(3-(2-hydroxypyridin-4-yl)azetidine-1-carbonyl)-5-oxooctahydro-1H-pyrrolo[1,2-a]azepin-6-yl)carbamoyl)benzo [b]thiophen-5-yl)methyl) phosphonic acid] | 0.1 to 1 | 3 to 30
4 | O=C(N[C@H]1CCC[C@H]2CC[C@@H](C(=O)N3CC(n4ccc(=O)nc4)C3)N2C1=O)c1cc2cc(C(F)P(=O)(O)O)ccc2s1 (stereo partly drawn) [Compound 620, (fluoro(2-(((3S,6S,9aS)-5-oxo-3-(3-(4-oxopyrimidin-1(4H)-yl)azetidine-1-carbonyl)octahydro-1H-pyrrolo[1,2-a]azepin-6-yl)carbamoyl)benzo [b]thiophen-5-yl)methyl) phosphonic acid] | 0.1 to 1 | 0.3 to 3
5 | O=C(N[C@H]1CCCC[C@H]2CC[C@@H](C(=O)N3CC(OCC(F)F)(c4ccccn4)C3)N2C1=O)c1cc2cc(C(F)P(=O)(O)O)ccc2s1 (stereo partly drawn) [Compound 621, ((2-(((3S,6S,10aS)-3-(3-(2,2-difluoroethoxy)-3-(pyridin-2-yl)azetidine-1-carbonyl)-5-oxodecahydropyrrolo [1,2-a]azocin-6-yl)carbamoyl)benzo [b]thiophen-5-yl)fluoromethyl) phosphonic acid] | < 0.1 | 3 to 30
6 | O=C(N[C@H]1CCC[C@H]2CC[C@@H](C(=O)N3CC(c4ncccc4F)C3)N2C1=O)c1cc2cc(C(F)P(=O)(O)O)ccc2s1 (stereo partly drawn) [Compound 623, (fluoro(2-(((3S,6S,9aS)-3-(3-(3-fluoropyridin-2-yl)azetidine-1-carbonyl)-5-oxooctahydro-1H-pyrrolo[1,2-a]azepin-6-yl)carbamoyl)benzo [b]thiophen-5-yl)methyl) phosphonic acid] | 0.1 to 1 | 3 to 30
7 | Cn1cncc(C2CN(C(=O)[C@@H]3CC[C@@H]4CCC[C@H](NC(=O)c5cc6cc(C(F)P(=O)(O)O)ccc6s5)C(=O)N43)C2)c1=O (stereo partly drawn) [Compound 624, (fluoro(2-(((3S,6S,9aS)-3-(3-(1-methyl-6-oxo-1,6-dihydropyrimidin-5-yl)azetidine-1-carbonyl)-5-oxooctahydro-1H-pyrrolo[1,2-a]azepin-6-yl)carbamoyl)benzo [b]thiophen-5-yl)methyl) phosphonic acid] | 1 to 10 | 3 to 30
8 | COc1c(F)cncc1C1CN(C(=O)[C@@H]2CC[C@@H]3CCC[C@H](NC(=O)c4cc5cc(C(F)P(=O)(O)O)ccc5s4)C(=O)N32)C1 (stereo partly drawn) [Compound 625, (fluoro(2-(((3S,6S,9aS)-3-(3-(5-fluoro-4-methoxypyridin-3-yl)azetidine-1-carbonyl)-5-oxooctahydro-1H-pyrrolo[1,2-a]azepin-6-yl)carbamoyl)benzo [b]thiophen-5-yl)methyl) phosphonic acid] | 0.1 to 1 | 3 to 30
9 | O=C(N[C@H]1CCC[C@H]2CC[C@@H](C(=O)N3CC(c4cnccc4N4CCOCC4)C3)N2C1=O)c1cc2cc(C(F)P(=O)(O)O)ccc2s1 (stereo partly drawn) [Compound 626, (fluoro(2-(((3S,6S,9aS)-3-(3-(4-morpholinopyridin-3-yl)azetidine-1-carbonyl)-5-oxooctahydro-1H-pyrrolo[1,2-a]azepin-6-yl)carbamoyl)benzo [b]thiophen-5-yl)methyl) phosphonic acid] | < 0.1 | 3 to 30
10 | CS(=O)(=O)CC1CN(C(=O)[C@@H]2CC[C@@H]3CCC[C@H](NC(=O)c4cc5cc(C(F)P(=O)(O)O)ccc5s4)C(=O)N32)C1 (stereo partly drawn) [Compound 627, (fluoro(2-(((3S,6S,9aS)-3-(3-((methylsulfonyl)methyl)azetidine-1-carbonyl)-5-oxooctahydro-1H-pyrrolo[1,2-a]azepin-6-yl)carbamoyl)benzo [b]thiophen-5-yl)methyl) phosphonic acid] | < 0.1 | 3 to 30
11 | Cn1cccc(C2CN(C(=O)[C@@H]3CC[C@@H]4CCC[C@H](NC(=O)c5cc6cc(C(F)P(=O)(O)O)ccc6s5)C(=O)N43)C2)c1=O (stereo partly drawn) [Compound 628, (fluoro(2-(((3S,6S,9aS)-3-(3-(1-methyl-2-oxo-1,2-dihydropyridin-3-yl)azetidine-1-carbonyl)-5-oxooctahydro-1H-pyrrolo[1,2-a]azepin-6-yl)carbamoyl)benzo [b]thiophen-5-yl)methyl) phosphonic acid] | < 0.1 | 3 to 30
12 | COc1c(C2CN(C(=O)[C@@H]3CC[C@@H]4CCC[C@H](NC(=O)c5cc6cc(C(F)P(=O)(O)O)ccc6s5)C(=O)N43)C2)cnn1C (stereo partly drawn) [Compound 629, (fluoro(2-(((3S,6S,9aS)-3-(3-(5-methoxy-1-methyl-1H-pyrazol-4-yl)azetidine-1-carbonyl)-5-oxooctahydro-1H-pyrrolo[1,2-a]azepin-6-yl)carbamoyl)benzo [b]thiophen-5-yl)methyl) phosphonic acid] | 0.1 to 1 | 3 to 30
13 | O=C(N[C@H]1CCC[C@H]2CC[C@@H](C(=O)N3CC4(C3)OCc3ccncc34)N2C1=O)c1cc2cc(C(F)P(=O)(O)O)ccc2s1 (stereo partly drawn) [Compound 630, (fluoro(2-(((3S,6S,9aS)-5-oxo-3-(1′H-spiro[azetidine-3,3′-furo [3,4-c]pyridine]-1-carbonyl)octahydro-1H-pyrrolo[1,2-a]azepin-6-yl)carbamoyl)benzo [b]thiophen-5-yl)methyl) phosphonic acid] | 0.1 to 1 | 3 to 30
14 | O=C(N[C@H]1CCC[C@H]2CC[C@@H](C(=O)N3CC(c4cnccc4OC(F)F)C3)N2C1=O)c1cc2cc(CP(=O)(O)O)ccc2s1 [Compound 632, ((2-(((3S,6S,9aS)-3-(3-(4-(difluoromethoxy)pyridin-3-yl)azetidine-1-carbonyl)-5-oxooctahydro-1H-pyrrolo[1,2-a]azepin-6-yl)carbamoyl)benzo [b]thiophen-5-yl)methyl) phosphonic acid] | 1 to 10 | 3 to 30
15 | COc1ccn(C2CN(C(=O)[C@@H]3CC[C@@H]4CCC[C@H](NC(=O)c5cc6cc(C(F)P(=O)(O)O)ccc6s5)C(=O)N43)C2)n1 (stereo partly drawn) [Compound 633, (fluoro(2-(((3S,6S,9aS)-3-(3-(3-methoxy-1H-pyrazol-1-yl)azetidine-1-carbonyl)-5-oxooctahydro-1H-pyrrolo[1,2-a]azepin-6-yl)carbamoyl)benzo [b]thiophen-5-yl)methyl) phosphonic acid] | 0.1 to 1 | 3 to 30
16 | Cn1ncc(C2CN(C(=O)[C@@H]3CC[C@@H]4CCC[C@H](NC(=O)c5cc6cc(C(F)P(=O)(O)O)ccc6s5)C(=O)N43)C2)c1F (stereo partly drawn) [Compound 635, (fluoro(2-(((3S,6S,9aS)-3-(3-(5-fluoro-1-methyl-1H-pyrazol-4-yl)azetidine-1-carbonyl)-5-oxooctahydro-1H-pyrrolo[1,2-a]azepin-6-yl)carbamoyl)benzo [b]thiophen-5-yl)methyl) phosphonic acid] | 0.1 to 1 | 3 to 30
17 | O=C(N[C@H]1CCC[C@H]2CC[C@@H](C(=O)N[C@H]3CN(c4ncc[nH]4)C[C@@H]3F)N2C1=O)c1cc2cc([C@H](F)P(=O)(O)O)ccc2s1 [Compound 637, ((R)-fluoro(2-(((3S,6S,9aS)-3-(((3S,4S)-4-fluoro-1-(1H-imidazol-2-yl)pyrrolidin-3-yl)carbamoyl)-5-oxooctahydro-1H-pyrrolo[1,2-a]azepin-6-yl)carbamoyl)benzo [b]thiophen-5-yl)methyl) phosphonic acid] | < 0.1 | 0.3 to 3
